Source: patent US20110091484A1, “Compositions and methods for preventing or treating a viral infection” (priority 2005, published 2011)
Several values for one entry are separate records, joined by “and”; a condition that tells them apart may be missing. Identical values can stand only once.

System: WR vaccinia virus-infected 143B cell cultures
Type: in vivo, mice

CC(C)Cn1cnc2c(N)nc3ccccc3c21 [Imiquimod]
% Inhibition (plaque inhibition): 13% and 22.6%
